Values quoted from earlier work in patent EP0496617B1, “Adenosine kinase inhibitors” (priority 1991, dated 1992).

What was measured:
[1] = system: dog hearts; conditions: cited from earlier work
[2] = system: mice; conditions: cited from earlier work
[3] = system: anesthetized rats; conditions: cited from earlier work
[4] = system: isolated rat hearts; conditions: perfused with the compound alone; normoxic, hypoxic, anoxic or ischemic conditions; cited from earlier work
[5] = system: rat brain slices; conditions: cited from earlier work
[6] = system: guinea pig brain slices; conditions: cited from earlier work
[7] = system: Isolated guinea pig hearts; conditions: added to the perfusion medium in the presence of EHNA; cited from earlier work
[8] = system: rat cardiomyocytes; conditions: inhibition of ADA together with adenosine kinase; cited from earlier work

## Nc1ncnc2c1c(I)cn2[C@@H]1O[C@H](CO)[C@@H](O)[C@H]1O [5-iodotubercidin, reference compound]
[1]
  effects in ischemia and reperfusion: inconsistent effects
[2]
  body temperature: hypothermia
  flaccidity and spontaneous locomotor activity: pronounced general flaccidity and much-reduced spontaneous locomotor activity
[3]
  blood pressure and heart rate: decrease blood pressure and heart rate
[4]
  perfusate adenosine concentration: no increase in perfusate adenosine concentration
[5]
  adenosine uptake: inhibited
[6]
  adenosine uptake: inhibited

## NC[C@H]1O[C@@H](n2cnc3c(N)ncnc32)[C@H](O)[C@@H]1O [GP-1-238, 5'-amino-5'-deoxyadenosine]
[7]
  increase of adenosine release: 15 fold
[8]
  increase in adenosine release: 6 fold
